Measurements reported in ChEMBL document CHEMBL3044717, “Synthesis and QSAR modeling 1-[3-methyl-2-(aryldiazenyl)-2H-aziren-2-yl]ethanones as potential antibacterial agents” (2013).

Assays:
Format in all cases: functional
[1] = system: Brevundimonas diminuta; experiment: Antibacterial activity against Brevundimonas diminuta MTCC 3361 assessed as growth inhibition after 16-24 hr by two-fold serial dilution method
[2] = system: Staphylococcus aureus; experiment: Antibacterial activity against Staphylococcus aureus ATCC 2943 assessed as growth inhibition after 16-24 hr by two-fold serial dilution method
[3] = system: Escherichia coli; experiment: Antibacterial activity against Escherichia coli ATCC 13607 assessed as growth inhibition after 16-24 hr by two-fold serial dilution method
[4] = system: Bacillus subtilis; experiment: Antibacterial activity against Bacillus subtilis ATCC 6633 assessed as growth inhibition after 16-24 hr by two-fold serial dilution method

In the case of `CC(=O)C1(/N=N/c2cccc(C(=O)O)c2)N=C1C` (configuration not stated), the “-logMIC” value [1] is reported as 4.138, the “-logMIC” value [2] is reported as 4.178 and the “-logMIC” value [3] is reported as 4.223. For the same compound, the “-logMIC” value [4] was 4.446.
With `CC(=O)C1(/N=N/c2cccc([N+](=O)[O-])c2)N=C1C` (configuration not stated) the “-logMIC” value [1] was 4.336, the “-logMIC” value [2] was 4.421 and the “-logMIC” value [3] was 4.257. The “-logMIC” value [4] was 4.245.
In the case of `CC(=O)C1(/N=N/c2ccccc2Cl)N=C1C` (configuration not stated), the “-logMIC” value [1] is reported as 4.354, the “-logMIC” value [2] is reported as 4.317 and the “-logMIC” value [4] is reported as 4.348.
In the case of `CC(=O)C1(/N=N/c2cccc(C)c2)N=C1C` (configuration not stated), the “-logMIC” value [2] is reported as 4.298 and the “-logMIC” value [4] is reported as 4.213.
For `CC(=O)C1(/N=N/c2ccc(Br)cc2)N=C1C` (configuration not stated), the “-logMIC” value [2] was 4.433, the “-logMIC” value [3] was 4.414 and the “-logMIC” value [4] was 4.401.
`CC(=O)C1(/N=N/c2ccc([N+](=O)[O-])cc2)N=C1C` (configuration not stated) was tested, and the “-logMIC” value [1] was 4.287, the “-logMIC” value [2] was 4.492 and the “-logMIC” value [3] was 4.253. For the same compound, the “-logMIC” value [4] was 4.221.
In the case of `CC(=O)C1(/N=N/c2ccccc2)N=C1C` (configuration not stated), the “-logMIC” value [1] is reported as 4.024, the “-logMIC” value [2] is reported as 4.032 and the “-logMIC” value [4] is reported as 4.026.
For `CC(=O)C1(/N=N/c2ccccc2C)N=C1C` (configuration not stated), the “-logMIC” value [2] was 4.339, the “-logMIC” value [3] was 4.378 and the “-logMIC” value [4] was 4.378.
With `COc1cccc(/N=N/C2(C(C)=O)N=C2C)c1` (configuration not stated) the “-logMIC” value [1] was 4.377, the “-logMIC” value [2] was 4.328 and the “-logMIC” value [4] was 4.366.
With `CC(=O)C1(/N=N/c2ccc(Cl)cc2)N=C1C` (configuration not stated) the “-logMIC” value [1] was 4.096, the “-logMIC” value [2] was 4.014 and the “-logMIC” value [4] was 4.078.
In the case of `CC(=O)C1(/N=N/c2cccc(Cl)c2)N=C1C` (configuration not stated), the “-logMIC” value [1] is reported as 4.325, the “-logMIC” value [2] is reported as 4.324 and the “-logMIC” value [4] is reported as 4.315.
In the case of `CC(=O)C1(/N=N/c2ccc(C(=O)O)cc2)N=C1C` (configuration not stated), the “-logMIC” value [1] is reported as 4.243, the “-logMIC” value [2] is reported as 4.358 and the “-logMIC” value [3] is reported as 4.341. For the same compound, the “-logMIC” value [4] was 4.376.
For `CC(=O)C1(/N=N/c2ccc(C)cc2)N=C1C` (configuration not stated), the “-logMIC” value [2] was 4.178 and the “-logMIC” value [4] was 4.298.
`CC(=O)C1(/N=N/c2cccc(Br)c2)N=C1C` (configuration not stated) was tested, and the “-logMIC” value [2] was 4.457, the “-logMIC” value [3] was 4.441 and the “-logMIC” value [4] was 4.425.
In the case of `COc1ccccc1/N=N/C1(C(C)=O)N=C1C` (configuration not stated), the “-logMIC” value [1] is reported as 4.072, the “-logMIC” value [2] is reported as 4.119 and the “-logMIC” value [4] is reported as 4.056.
